Consider eight compounds from patent US20150087605A1 (priority 2013, published 2015).

Where two headings read alike, the source gives them in different places.

Data set [1] addresses Anthrax Lethal Factor (LF) (Bacillus anthracis, UniProt P15917). Nature of the data set: biochemical. Format: binding.
For data set [2] the following is noted: in vivo, cited from earlier work.
In another data set the target is COX-1 (Homo sapiens, UniProt P23219). Particulars: read-out: IC50 COX-1; cited from earlier work.
COX-1, sequence (P23219 24-599): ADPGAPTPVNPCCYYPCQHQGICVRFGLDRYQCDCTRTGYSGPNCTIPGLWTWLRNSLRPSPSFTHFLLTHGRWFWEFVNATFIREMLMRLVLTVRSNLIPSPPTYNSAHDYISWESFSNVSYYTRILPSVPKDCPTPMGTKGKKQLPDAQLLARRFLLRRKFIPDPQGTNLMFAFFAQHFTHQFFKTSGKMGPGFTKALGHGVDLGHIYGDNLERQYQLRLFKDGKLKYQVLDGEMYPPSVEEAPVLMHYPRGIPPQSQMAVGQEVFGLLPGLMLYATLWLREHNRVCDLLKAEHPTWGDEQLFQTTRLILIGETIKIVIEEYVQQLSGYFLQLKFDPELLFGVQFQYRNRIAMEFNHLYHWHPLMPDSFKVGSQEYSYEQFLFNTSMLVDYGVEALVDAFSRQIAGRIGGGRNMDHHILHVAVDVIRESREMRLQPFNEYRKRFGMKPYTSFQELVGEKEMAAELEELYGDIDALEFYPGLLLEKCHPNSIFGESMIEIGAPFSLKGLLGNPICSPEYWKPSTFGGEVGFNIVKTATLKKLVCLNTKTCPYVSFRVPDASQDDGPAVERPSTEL
The target in a further data set is COX-2 (Homo sapiens, UniProt P35354). The following applies: read-out: IC50 COX-2; cited from earlier work.
COX-2, sequence (P35354 18-604): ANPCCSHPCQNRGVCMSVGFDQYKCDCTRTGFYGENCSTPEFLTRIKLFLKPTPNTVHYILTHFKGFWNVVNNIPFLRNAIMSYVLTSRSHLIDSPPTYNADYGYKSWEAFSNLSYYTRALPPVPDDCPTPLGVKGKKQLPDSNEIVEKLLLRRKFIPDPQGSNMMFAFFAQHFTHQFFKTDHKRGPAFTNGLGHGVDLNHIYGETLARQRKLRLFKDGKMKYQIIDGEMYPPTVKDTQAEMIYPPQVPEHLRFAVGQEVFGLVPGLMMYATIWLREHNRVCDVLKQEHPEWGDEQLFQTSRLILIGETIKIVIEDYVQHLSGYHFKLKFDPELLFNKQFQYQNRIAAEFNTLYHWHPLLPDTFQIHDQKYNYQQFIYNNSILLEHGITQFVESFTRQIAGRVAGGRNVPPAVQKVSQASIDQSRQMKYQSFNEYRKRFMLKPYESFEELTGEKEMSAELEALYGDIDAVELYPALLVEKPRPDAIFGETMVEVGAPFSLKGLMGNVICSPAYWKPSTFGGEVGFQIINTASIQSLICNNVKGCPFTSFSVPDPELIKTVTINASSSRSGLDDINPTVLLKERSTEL
The target of a further data set is LF protease activity (Bacillus anthracis, UniProt P15917). Nature of the data set: biochemical.
LF protease activity, sequence (P15917 34-809 limits assumed): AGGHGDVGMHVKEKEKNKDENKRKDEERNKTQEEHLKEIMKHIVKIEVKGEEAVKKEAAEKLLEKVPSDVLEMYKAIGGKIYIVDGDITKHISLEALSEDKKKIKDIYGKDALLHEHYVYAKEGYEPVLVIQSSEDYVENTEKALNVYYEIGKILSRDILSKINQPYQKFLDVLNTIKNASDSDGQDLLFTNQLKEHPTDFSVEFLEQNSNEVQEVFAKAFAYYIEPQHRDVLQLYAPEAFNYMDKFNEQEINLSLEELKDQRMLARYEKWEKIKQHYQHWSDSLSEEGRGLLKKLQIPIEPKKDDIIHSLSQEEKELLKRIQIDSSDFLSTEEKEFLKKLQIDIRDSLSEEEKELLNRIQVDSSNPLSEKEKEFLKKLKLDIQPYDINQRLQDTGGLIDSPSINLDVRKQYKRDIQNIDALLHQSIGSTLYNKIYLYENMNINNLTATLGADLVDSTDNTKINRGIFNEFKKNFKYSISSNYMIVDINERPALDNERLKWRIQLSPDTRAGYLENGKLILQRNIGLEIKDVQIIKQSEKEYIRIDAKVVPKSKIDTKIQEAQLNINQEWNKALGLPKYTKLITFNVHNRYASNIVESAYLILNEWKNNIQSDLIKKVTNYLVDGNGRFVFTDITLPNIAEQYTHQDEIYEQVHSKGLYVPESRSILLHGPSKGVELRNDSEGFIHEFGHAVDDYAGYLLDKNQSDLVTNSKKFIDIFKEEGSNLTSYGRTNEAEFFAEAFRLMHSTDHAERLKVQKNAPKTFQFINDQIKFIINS
Data set [3] has as its system RAW 264.7 macrophages treated with LeTx (PA and LF). Kind of data set: cells. The following applies: Mus musculus, RAW264.7, read-out: IC50 Cell Viability.
Data set [4] has the same test system.

The term Kd denotes a measure of binding affinity in units of concentration. Low readings indicate tighter binding, high ones weaker binding. A word on the IC50: it is the concentration at which inhibition is half-maximal.

Anthrax Lethal Factor (LF), sequence (P15917 34-809 limits assumed): as above

In the case of `CC1=C(CC(=O)O)c2cc(F)ccc2/C1=C\c1ccc([S+](C)[O-])cc1` (stereo not shown) [Sulindac], binding in data set [1] was put at a Kd of 2.8 µM. In addition, the mean half-life in data set [2] (150 mg) is on record as 7.8 h. The “maximum concentration in human blood plasma” value in data set [2] is 5.71 ± 2.17 µg/mL. For the same compound, the 50% inhibitory concentration (IC50) at COX-1 was 41.3 µM; at COX-2, 25 µM; on LF protease activity (IC50 Protease Activity), 173 µM; in data set [3] it was 31.7 µM.

For `CCCCc1ccc(C(=O)NCCCn2cc(CNC(C)=O)nn2)nc1` [fusaric acid-bMR], the figures for the IC50 (in data set [4] (mouse); against LF protease activity (IC50 Protease Activity)) were 0.721 µM and 1.2 ± 0.36 µM, respectively.

Consider `CC1=C(CC(=O)O)c2cc(F)ccc2/C1=C\c1ccc(S(C)(=O)=O)cc1` [sulindac sulfone, Sulindac Sulfone], for which the half-maximal inhibitory concentration (IC50) stood at 56.6 µM in data set [4] (read-out: IC50 Cell Viability) and 185 µM at LF protease activity (read-out: IC50 Protease Activity).

Consider `CSc1ccc(/C=C2/C(C)=C(CC(=O)O)c3cc(F)ccc32)cc1` [sulindac sulfide, Sulindac Sulfide], for which the values for the IC50 (at LF protease activity (IC50 Protease Activity); in data set [3]) were 19.1 µM and 20.4 µM, respectively.

With `CCCCc1ccc(C(=O)NCCCN=[N+]=[N-])nc1` [fusaric acid-N3], the 50% inhibitory concentration (IC50) on LF protease activity (IC50 (fluorogenic substrate assay)) turned out to be 1100 µM; in data set [3], 164 µM.

Consider `CCCCc1ccc(C(=O)O)nc1` [Fusaric Acid], for which binding in data set [1] was characterised by a dissociation constant (Kd) of 4.5 µM. The results for the half-maximal inhibitory concentration (IC50) (against LF protease activity (IC50 Protease Activity); in data set [3]) were 530 µM and 75.3 µM, respectively.

Turning to `COc1ccc2cc([C@H](C)C(=O)O)ccc2c1` [Naproxen, (S)-(+)-6-Methoxy-α-methyl-2-naphthaleneacetic acid], the “inhibition of LeTx cytotoxicity (in words)” value in data set [4] was “failed to inhibit LeTx”. Also, the “inhibition of LF protease activity (in words)” value against LF protease activity is listed as “failed to inhibit LF”.

As to `CC1=C(CC(=O)NCCCN=[N+]=[N-])c2cc(F)ccc2/C1=C\c1ccc([S+](C)[O-])cc1` (stereo not shown) [sulindac-N3], the half-inhibitory concentration (IC50) against LF protease activity (IC50 Protease Activity) was 420 µM; in data set [3], 90.1 µM.
